Source: ChEMBL document CHEMBL1201862, “PubChem BioAssay data set” (2004)
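A five-concentration, 48-hour dose response in 96-well plates underlies each endpoint, interpolated linearly between surrounding concentrations. GI50 is the concentration that inhibits growth by half.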 Active and inactive are the calls of the source. Cut-off read from the data, not from the text of the source: active = GI50 up to about 1.1 µM and inactive = higher.

Tests used:
Experiment in all cases: NCI-60 cell line screen, 48 h
786-0 = system: 786-0
ACHN = system: ACHN
COLO 205 = system: COLO 205
EKVX = system: EKVX
HL-60 = system: HL-60
HT-29 = system: HT-29
Hs-578T = system: Hs-578T
K562 = system: K562
KM12 = system: KM12
M14 = system: M14
NCI-H226 = system: NCI-H226
OVCAR-3 = system: OVCAR-3
PC-3 = system: PC-3
SK-MEL-2 = system: SK-MEL-2
SK-MEL-5 = system: SK-MEL-5
SN12C = system: SN12C
SNB-75 = system: SNB-75
T47D = system: T47D
TK-10 = system: TK-10
UACC-257 = system: UACC-257

Compound | GI50 (786-0) | GI50 (ACHN) | GI50 (COLO 205) | GI50 (EKVX) | GI50 (HL-60) | GI50 (HT-29) | GI50 (Hs-578T) | GI50 (K562) | GI50 (KM12) | GI50 (M14) | GI50 (NCI-H226) | GI50 (OVCAR-3) | GI50 (PC-3) | GI50 (SK-MEL-2) | GI50 (SK-MEL-5) | GI50 (SN12C) | GI50 (SNB-75) | GI50 (T47D) | GI50 (TK-10) | GI50 (UACC-257)
CNC(=O)Nc1ccccc1 | > 100 µM (inactive) | > 100 µM (inactive) | > 100 µM (inactive) | > 100 µM (inactive) | > 100 µM (inactive) | > 100 µM (inactive) | > 100 µM (inactive) | > 100 µM (inactive) | > 100 µM (inactive) | > 100 µM (inactive) | > 100 µM (inactive) | > 100 µM (inactive) | > 100 µM (inactive) | > 100 µM (inactive) | > 100 µM (inactive) | > 100 µM (inactive) | > 74.6 µM (inactive) | > 100 µM (inactive) | > 100 µM (inactive) | > 100 µM (inactive)
O=C(CCN1CCCC1)Nc1ccc2sc3ccccc3c(=O)c2n1 | 11.7 µM (inactive) | 11.5 µM (inactive) | 11.1 µM (inactive) | 12.4 µM (inactive) | 10.3 µM (inactive) | 4.35 µM (inactive) | 11.8 µM (inactive) | 13.8 µM (inactive) | 12.8 µM (inactive) | 13.2 µM (inactive) | 13.8 µM (inactive) | 14.5 µM (inactive) | 13.5 µM (inactive) | 13.3 µM (inactive) | 11.8 µM (inactive) | 10.1 µM (inactive) | 11.8 µM (inactive) | 19.2 µM (inactive) | > 10 µM (inactive) | 12.2 µM (inactive)
COc1cc(N(CCC#N)CCC#N)ccc1/C=C1\SC(=S)NC1=O | > 100 µM (inactive) | > 100 µM (inactive) | > 100 µM (inactive) | > 100 µM (inactive) | > 100 µM (inactive) | > 100 µM (inactive) | > 100 µM (inactive) | > 100 µM (inactive) | > 100 µM (inactive) | > 100 µM (inactive) | > 100 µM (inactive) | > 100 µM (inactive) | > 100 µM (inactive) | > 100 µM (inactive) | > 100 µM (inactive) | > 100 µM (inactive) | > 100 µM (inactive) | > 100 µM (inactive) | > 100 µM (inactive) | > 100 µM (inactive)
Cn1cnc([N+](=O)[O-])c1Sc1nc(N)nc2c1ncn2C1OC(CO)C(O)C1O (stereo not given) | 3.14 µM (inactive) | 9.04 µM (inactive) | 7.83 µM (inactive) | 8.39 µM (inactive) | 9.44 µM (inactive) | 6.27 µM (inactive) | 1.97 µM (inactive) | 5.13 µM (inactive) | 5.51 µM (inactive) | 2.28 µM (inactive) | 15.8 µM (inactive) | 4.9 µM (inactive) | 1.52 µM (inactive) | 0.497 µM (active) | 6.22 µM (inactive) | 7.11 µM (inactive) | 6.44 µM (inactive) | 5.38 µM (inactive) | 6.76 µM (inactive) | 15.2 µM (inactive)
Cc1cccc(/C=N/NC(=S)NCCc2ccccn2)n1 | 23.3 µM (inactive) | 13.3 µM (inactive) | 31.4 µM (inactive) | 38.2 µM (inactive) | 15.6 µM (inactive) | 27.9 µM (inactive) | 53.5 µM (inactive) | 30.8 µM (inactive) | 36.4 µM (inactive) | 16.7 µM (inactive) | 16.1 µM (inactive) | 48 µM (inactive) | 35.2 µM (inactive) | 31.2 µM (inactive) | 26.1 µM (inactive) | 29.9 µM (inactive) | 20.3 µM (inactive) | 37.8 µM (inactive) | 71.4 µM (inactive) | 33.8 µM (inactive)
COc1ccc(-c2oc3c(OC)c(OC)c(OC)c(O)c3c(=O)c2OC)cc1OC | 25.4 µM (inactive) | 25 µM (inactive) | 25.8 µM (inactive) | 37.6 µM (inactive) | 6.81 µM (inactive) | 23.6 µM (inactive) | 3.01 µM (inactive) | 10.6 µM (inactive) | 24.4 µM (inactive) | 26.4 µM (inactive) | 20.7 µM (inactive) | 22.7 µM (inactive) | 18 µM (inactive) | 15.1 µM (inactive) | 9.71 µM (inactive) | 26.2 µM (inactive) | 1.66 µM (inactive) | 2.86 µM (inactive) | 36.2 µM (inactive) | 32.1 µM (inactive)
Cc1c(S(=O)(=O)O)ccc(/N=N/c2c(O)c(C(=O)O)cc3ccccc23)c1Cl | > 89.3 µM (inactive) | > 100 µM (inactive) | > 100 µM (inactive) | > 100 µM (inactive) | > 100 µM (inactive) | > 100 µM (inactive) | > 62.1 µM (inactive) | > 100 µM (inactive) | > 100 µM (inactive) | > 100 µM (inactive) | > 100 µM (inactive) | > 100 µM (inactive) | > 100 µM (inactive) | > 100 µM (inactive) | > 100 µM (inactive) | > 100 µM (inactive) | > 100 µM (inactive) | > 100 µM (inactive) | > 100 µM (inactive) | > 100 µM (inactive)
C[C@@H]1O[C@@H](O[C@H]2CC[C@]3(C=O)[C@H]4CC[C@]5(C)[C@@H](C6=CC(=O)OC6)CC[C@]5(O)[C@@H]4CC[C@]3(O)C2)[C@H](O)[C@H](O)[C@H]1O [CONVALLATOXIN] | 8.79e-06 µM (active) | 9.73e-06 µM (active) | 9.35e-05 µM (active) | 9.51e-06 µM (active) | 3.42e-05 µM (active) | 4.78e-05 µM (active) | < 0.01 µM (active) | 4.92e-05 µM (active) | 8.39e-05 µM (active) | 0.0146 µM (active) | 5.35e-05 µM (active) | 8.91e-06 µM (active) | 2.62e-05 µM (active) | 7.1e-05 µM (active) | 2.05e-05 µM (active) | 8.69e-06 µM (active) | 4.3e-05 µM (active) | 5.62e-05 µM (active) | 2.88e-05 µM (active) | 6.67e-05 µM (active)
COc1ccc(/C=C2\N/C(=N\N=C/C(O)C(O)C(O)C(O)CO)NC2=O)cc1 (stereo not given) | 35.5 µM (inactive) | 32.2 µM (inactive) | 44.6 µM (inactive) | > 100 µM (inactive) | > 100 µM (inactive) | 71.8 µM (inactive) | 26.9 µM (inactive) | 62.8 µM (inactive) | 30 µM (inactive) | 19.4 µM (inactive) | 39.3 µM (inactive) | 18.6 µM (inactive) | 26.2 µM (inactive) | 17.8 µM (inactive) | 47.3 µM (inactive) | 23.9 µM (inactive) | 22.1 µM (inactive) | 12.5 µM (inactive) | 41.6 µM (inactive) | 30.1 µM (inactive)
O=[N+]([O-])c1ccc2nc(Cl)n[n+]([O-])c2c1 | 8.3 µM (inactive) | 14 µM (inactive) | 9.04 µM (inactive) | 18.5 µM (inactive) | 0.668 µM (active) | 11.7 µM (inactive) | 37 µM (inactive) | 1.15 µM (inactive) | 23.2 µM (inactive) | 14.3 µM (inactive) | 19.6 µM (inactive) | 7.43 µM (inactive) | 13 µM (inactive) | 15.2 µM (inactive) | 6.68 µM (inactive) | 16.1 µM (inactive) | 14.4 µM (inactive) | 16.8 µM (inactive) | 16.8 µM (inactive) | 15.4 µM (inactive)
CN(C)C(=S)/N=c1\ssc(=S)n1Cc1cccnc1 | 4.07 µM (inactive) | 6.76 µM (inactive) | 2.2 µM (inactive) | > 88.9 µM (inactive) | 1.76 µM (inactive) | 1.66 µM (inactive) | 1.86 µM (inactive) | 1.12 µM (active) | 1 µM (active) | 2.37 µM (inactive) | > 55.6 µM (inactive) | 1.65 µM (inactive) | 1.67 µM (inactive) | 2.29 µM (inactive) | 1.67 µM (inactive) | 5.18 µM (inactive) | 1.91 µM (inactive) | > 100 µM (inactive) | 14.2 µM (inactive) | 4.23 µM (inactive)
Clc1ccc(C2NN=C3c4ccccc4OCC32)cc1 (stereo not given) | 4.65 µM (inactive) | 14.9 µM (inactive) | 2.96 µM (inactive) | 3.59 µM (inactive) | 3.15 µM (inactive) | 3.13 µM (inactive) | 3.2 µM (inactive) | 3.39 µM (inactive) | 3.64 µM (inactive) | 2.84 µM (inactive) | 2.92 µM (inactive) | 5.16 µM (inactive) | 4.11 µM (inactive) | 3.48 µM (inactive) | 3.01 µM (inactive) | 5.73 µM (inactive) | 5.53 µM (inactive) | 5.83 µM (inactive) | 22.8 µM (inactive) | 9.46 µM (inactive)
CCOC(=O)CO/N=C\C1=CC(=O)C2CC1C2(C)C (stereo not given) | > 100 µM (inactive) | > 100 µM (inactive) | > 100 µM (inactive) | > 100 µM (inactive) | > 100 µM (inactive) | > 100 µM (inactive) | > 100 µM (inactive) | > 100 µM (inactive) | > 100 µM (inactive) | > 100 µM (inactive) | > 100 µM (inactive) | > 100 µM (inactive) | > 100 µM (inactive) | > 100 µM (inactive) | > 100 µM (inactive) | > 100 µM (inactive) | 30.1 µM (inactive) | > 100 µM (inactive) | > 100 µM (inactive) | > 100 µM (inactive)
Cc1c(C)c(C)c(-n2c(=O)n(C)c(=O)n2-c2cc(C(C)(C)C)cc(C(C)(C)C)c2O)c(C)c1C | 10.4 µM (inactive) | 12.2 µM (inactive) | 7.19 µM (inactive) | 10.5 µM (inactive) | 3.04 µM (inactive) | 3.64 µM (inactive) | 10.4 µM (inactive) | 6.21 µM (inactive) | 11.8 µM (inactive) | 10.2 µM (inactive) | 8.32 µM (inactive) | 4.68 µM (inactive) | 3.03 µM (inactive) | 6.47 µM (inactive) | 6.21 µM (inactive) | 9.44 µM (inactive) | 4.14 µM (inactive) | 4.89 µM (inactive) | 10.1 µM (inactive) | 9.66 µM (inactive)
